The values that follow come from patent US11667602B2, “Compounds and their use” (AstraZeneca AB, priority 2020, dated 2023).

pEC50: −log10 of the molar value. In brackets after ≈: the same amount, converted by molar mass. Where two headings read alike, the source gives them in different places.

For data set [1] the following is noted: cited from earlier work.
Data set [2] is described as follows: Human Plasma Protein Binding (Test B). The class given is in vitro ADME. Conditions: fraction unbound (fu). A digest of the protocol:
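Values given as % free (fu) in human plasma, using the method of Wernevik et al. (2020). For compounds tested more than once, the arithmetic mean is given.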

Data set [3] can be described thus: Human Liver Microsomal Stability (Test C). The class given is in vitro ADME. The note with it: human, liver microsomes. A digest of the protocol:
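CLint (μl/min/mg protein) derived from compound depletion in human liver microsomes following a published standardized early-DMPK protocol; replicate determinations given as arithmetic mean.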
Background: Liver microsomes are a subcellular fraction often used to study metabolism.

Data set [4] can be described thus: Human Hepatocyte Stability (Test D). It counts as in vitro ADME. Conditions: human, cryopreserved pooled human hepatocytes (LiverPool 10-Donor), geometric mean if run multiple times. An outline of the steps:
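Intrinsic clearance (μL/min/10^6 cells), derived as kV/N from the log-linear loss of parent compound. Compound incubated at 37 °C with cryopreserved pooled human hepatocytes, 0.25×10^6 cells in 0.25 mL L-15; dosing solution 100 μM in acetonitrile. Singlicate incubations, cassette LC-MS; repeats reported as geometric mean.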

The nature of data set [5]: Rat Hepatocyte Stability (Test E). The class given is in vitro ADME. Conditions: rat, hepatocytes, geometric mean if run multiple times. An outline of the steps: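 Intrinsic clearance in rat hepatocytes, expressed as μl/min/10^6 cells, following the literature integrated DMPK panel method. Repeat determinations combined as geometric mean.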
Data set [6] can be described thus: Solubility (Test F). The class given is physicochemical. The note with it: arithmetic mean if run multiple times. The method, then:
The assay was conducted according to the Solubility Assay described in pages 164-167 of Wernevik, J. et al., “A Fully Integrated Assay Panel for Early Drug Metabolism and Pharmacokinetics Profiling”, Assay and Drug Development Technologies, 2020, 18(4), 157-179. Data are reported in Table 36 as solubility ([…]. Where the assay was run multiple times for the same compound, the arithmetic mean is reported.

Data set [7] has as its target T1, human RXFP1 (Homo sapiens, UniProt Q9HBX9).
T1 sequence (Q9HBX9 1-757): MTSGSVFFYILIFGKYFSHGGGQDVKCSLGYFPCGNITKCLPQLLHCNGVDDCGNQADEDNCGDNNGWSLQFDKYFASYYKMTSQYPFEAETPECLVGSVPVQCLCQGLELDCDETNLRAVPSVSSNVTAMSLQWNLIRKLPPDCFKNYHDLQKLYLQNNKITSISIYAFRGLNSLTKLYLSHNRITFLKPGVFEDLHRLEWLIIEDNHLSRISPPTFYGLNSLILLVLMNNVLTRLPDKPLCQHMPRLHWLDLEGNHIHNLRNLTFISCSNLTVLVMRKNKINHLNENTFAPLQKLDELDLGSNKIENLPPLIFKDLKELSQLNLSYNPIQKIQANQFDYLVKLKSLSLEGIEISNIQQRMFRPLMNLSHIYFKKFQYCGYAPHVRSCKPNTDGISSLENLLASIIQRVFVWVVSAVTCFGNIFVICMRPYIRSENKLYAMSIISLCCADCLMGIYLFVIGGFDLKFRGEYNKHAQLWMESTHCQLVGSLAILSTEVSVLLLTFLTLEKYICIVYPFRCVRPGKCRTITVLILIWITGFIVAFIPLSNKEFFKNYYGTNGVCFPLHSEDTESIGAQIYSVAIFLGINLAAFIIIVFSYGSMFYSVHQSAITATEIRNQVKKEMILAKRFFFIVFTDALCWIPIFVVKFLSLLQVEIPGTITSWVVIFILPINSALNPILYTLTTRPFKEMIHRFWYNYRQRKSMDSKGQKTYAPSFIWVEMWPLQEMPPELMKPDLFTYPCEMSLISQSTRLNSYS
As to the kind of experiment: RXFP1 Hu cAMP (Test A). On the set-up: expressed in transfected cells; host or cells: Jump-In T-REx CHO-K1 cells (ThermoFisher), induced with 10 ng/ml doxycycline for 24 h. It counts as cell-based. An outline of the steps: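 CHO-K1 (Jump-In T-REx), RXFP1 induced w/ 10 ng/ml doxycycline 24 h, cryopreserved. 0.5 mM IBMX final. cAMP by HTRF, 2 h RT, std curve.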

The mark [8] stands for this setting: RXFP1 Hu cAMP, read-out: Test A EC50.

Consider serelaxin, for which, in data set [1] (approximately one third of the patients, after receiving serelaxin intravenously), the “significant blood pressure drop” value is listed as above 40 mm Hg. Moreover, the “markers of cardiac, renal and hepatic damage and congestion” value in data set [1] (continuous intravenous administration to hospitalized patients) was “improved”. Also, in data set [1] (patients, positive effects rapidly disappeared once intravenous injection stopped), the “clearance from the patients' circulation” value is “rapid clearance”.
As a reminder, the microsomal CLint is the rate of metabolic loss divided by the concentration. Read a low microsomal CLint as slow turnover. The hepatocyte CLint is the capacity of the preparation to metabolise the compound, expressed as a volume cleared per time. Low readings indicate greater metabolic stability, high ones faster metabolism. In general, solubility refers to the concentration that dissolves in the medium under given conditions. The low end stands for little dissolved substance, the high end for much dissolved substance. Broadly, the pEC50 is −log10 of the EC50, conventionally taken in molar units. Take `COc1cc(F)c(O[C@H]2CC[C@@](C)(C(=O)O)CC2)cc1C(=O)NC1C2CCC(C2)C1C(=O)Nc1ccc(F)c(S(F)(F)(F)(F)F)c1` (single isomer, unassigned) [Example 520, (1R,4s)-4-(2-Fluoro-5-(((1S*,2S*,3R*,4R*)-3-((4-fluoro-3-(pentafluoro-λ6-sulfaneyl)phenyl)carbamoyl)bicyclo[2.2.1]heptan-2-yl)carbamoyl)-4-methoxyphenoxy)-1-methylcyclohexane-1-carboxylic acid]: in data set [2], the “Test B Human Plasma Protein Binding (% free)” value is on record as below 0.070 % free. The compound further yielded a microsomal CLint in data set [3] of 12 µL/min/mg. In addition, in data set [4], the intrinsic clearance (hepatocyte CLint) at 1 µM stood at 5.7 µL/min/1e6 cells. For the same compound, in data set [5], the hepatocyte CLint came out at 7.5 µL/min/1e6 cells. This compound had a solubility in data set [6] of 460 µM (≈ 314 µg/mL). The “Test A Sinf” value in data set [7] (RXFP1 Hu cAMP) is 108%. Besides, in data set [7] (setting [8]), the pEC50 was 9.31.
Take `COc1cc(F)c(OCCCCCC(=O)O)cc1C(=O)N[C@@H]1[C@H]2CC[C@H](C2)[C@@H]1C(=O)Nc1cccc(S(=O)(=O)C(F)(F)F)c1` [Example 435, 6-(2-Fluoro-4-methoxy-5-(((1S,2R,3S,4R)-3-((3-((trifluoromethyl)sulfonyl)phenyl)carbamoyl)bicyclo[2.2.1]heptan-2-yl)carbamoyl)phenoxy)hexanoic acid]: the “Test B Human Plasma Protein Binding (% free)” value in data set [2] came to 1.4 % free. The microsomal CLint in data set [3] is 63 µL/min/mg. In data set [4], this compound registered a hepatocyte CLint at 1 µM of 150 µL/min/1e6 cells. The compound further registered a hepatocyte CLint in data set [5] above 300 µL/min/1e6 cells. In data set [6], the concentration in solution (solubility) was 880 µM (≈ 567 µg/mL). The “Test A Sinf” value in data set [7] (RXFP1 Hu cAMP) stood at 103%.
Take `COc1cc(F)c(O[C@H]2CC[C@@H](C(N)=O)CC2)cc1C(=O)N[C@H]1[C@@H](C(=O)Nc2ccc(F)c(C(F)(F)F)c2)[C@@H]2C=C[C@H]1C2` [Example 499, (1S,2S,3R,4R)-3-(5-(((1s,4S)-4-Carbamoylcyclohexyl)oxy)-4-fluoro-2-methoxybenzamido)-N-(4-fluoro-3-(trifluoromethyl)phenyl)bicyclo[2.2.1]hept-5-ene-2-carboxamide]: the “Test B Human Plasma Protein Binding (% free)” value in data set [2] was determined as 0.51 % free. The same compound gave a microsomal CLint in data set [3] of 200 µL/min/mg. Moreover, the intrinsic metabolic clearance (hepatocyte CLint) at 1 µM in data set [4] turned out to be 28 µL/min/1e6 cells. The hepatocyte CLint in data set [5] was 96 µL/min/1e6 cells. In data set [6], the concentration in solution (solubility) was 13 µM (≈ 7.9 µg/mL). Besides, the “Test A Sinf” value in data set [7] (RXFP1 Hu cAMP) came to 128%. Further, the pEC50 in data set [7] (setting [8]) was 7.00.
With `COc1cc(F)c(Cc2cn[nH]c2)cc1C(=O)N[C@@H]1[C@H]2CC[C@H](C2)[C@@H]1C(=O)Nc1cccc(S(=O)(=O)C(F)(F)F)c1` [Example 219, (1R,2S,3R,4S)-3-(5-((1H-Pyrazol-4-yl)methyl)-4-fluoro-2-methoxybenzamido)-N-(3-((trifluoromethyl)sulfonyl)phenyl)bicyclo[2.2.1]heptane-2-carboxamide], the “Test B Human Plasma Protein Binding (% free)” value in data set [2] stood at 0.19 % free. In data set [3], this compound displayed a microsomal CLint above 300 µL/min/mg. This compound came in with a hepatocyte CLint at 1 µM in data set [4] of 78 µL/min/1e6 cells. In data set [5], the hepatocyte CLint was 130 µL/min/1e6 cells. The amount in solution in data set [6] (solubility) came to 5 µM (≈ 2.97 µg/mL). In addition, the “Test A Sinf” value in data set [7] (RXFP1 Hu cAMP) is given as 113%.
On to `COc1cc(F)c(O[C@H]2CC[C@@H](C(=O)O)CC2)cc1C(=O)N[C@@H]1CCC[C@@H]1C(=O)Nc1cccc(S(=O)(=O)C(F)(F)F)c1` [Example 490], for which, in data set [2], the “Test B Human Plasma Protein Binding (% free)” value was found to be 1.9 % free. The compound also returned a microsomal CLint in data set [3] of 30 µL/min/mg. This compound also yielded a hepatocyte CLint at 1 µM in data set [4] of 17 µL/min/1e6 cells. In addition, the hepatocyte CLint in data set [5] was 16 µL/min/1e6 cells. In data set [6], this compound had a solubility of 940 µM (≈ 593 µg/mL). Besides, in data set [7] (RXFP1 Hu cAMP), the “Test A Sinf” value came to 127%. Besides, the negative-log EC50 (pEC50) in data set [7] (setting [8]) was 6.52.
Take `COc1cc(F)c(O[C@H]2CC[C@@H](C(=O)O)CC2)cc1C(=O)N[C@@H]1[C@H]2CC[C@H](C2)[C@@H]1C(=O)NCC(C)(C)C` [Example 180, (1S,4s)-4-(2-Fluoro-4-methoxy-5-(((1S,2R,3S,4R)-3-(neopentylcarbamoyl)bicyclo[2.2.1]heptan-2-yl)carbamoyl)phenoxy)cyclohexane-1-carboxylic acid]: in data set [2], the “Test B Human Plasma Protein Binding (% free)” value amounted to 14 % free. This compound yielded a microsomal CLint in data set [3] of 6.8 µL/min/mg. This compound also registered a hepatocyte CLint at 1 µM in data set [4] of 2.2 µL/min/1e6 cells. The same compound had a hepatocyte CLint in data set [5] of 130 µL/min/1e6 cells. The same compound had a solubility in data set [6] above 1000 µM. Moreover, in data set [7] (RXFP1 Hu cAMP), the “Test A Sinf” value worked out at 100%. The compound further showed a pEC50 in data set [7] (Test A EC50, RXFP1 Hu cAMP) of 6.02.
As to `COc1cc(F)c(O[C@H]2CC[C@@](C)(C(=O)O)CC2)cc1C(=O)N[C@@H]1[C@H]2CC[C@H](C2)[C@@H]1C(=O)NC(C(C)C)C(C)C` [Example 40], the “Test B Human Plasma Protein Binding (% free)” value in data set [2] was 3.4 % free. Moreover, the microsomal CLint in data set [3] was found to be 190 µL/min/mg. Further, in data set [4], the hepatocyte CLint at 1 µM was found to be 30 µL/min/1e6 cells. Also, in data set [5], the hepatocyte CLint was 52 µL/min/1e6 cells. Further, the solubility in data set [6] is 2.5 µM (≈ 1.4 µg/mL). In addition, the “Test A Sinf” value in data set [7] (RXFP1 Hu cAMP) is 97%. For the same compound, in data set [7] (setting [8]), the pEC50 is 6.09.
With `COc1cc(F)c(O[C@H]2CC[C@@](C)(C(=O)O)CC2)cc1C(=O)N[C@@H]1[C@H]2CC[C@H](C2)[C@@H]1C(=O)NCC1(C)CCCCC1` [Example 44], in data set [2], the “Test B Human Plasma Protein Binding (% free)” value was determined as 2.1 % free. Further, in data set [3], the microsomal CLint was found to be 110 µL/min/mg. This compound also returned a hepatocyte CLint at 1 µM in data set [4] of 17 µL/min/1e6 cells. The hepatocyte CLint in data set [5] was determined as 35 µL/min/1e6 cells. The compound further came in with a solubility in data set [6] of 300 µM (≈ 172 µg/mL). Besides, in data set [7] (RXFP1 Hu cAMP), the “Test A Sinf” value came out at 107%. Moreover, the pEC50 in data set [7] (setting [8]) was 7.80.
`COc1cc(F)c(O[C@H]2CC[C@@](C)(C(=O)O)CC2)cc1C(=O)N[C@@H]1[C@H]2CC[C@H](C2)[C@@H]1C(=O)NCC(C)(C)C` [Example 35, (1S,4s)-4-(2-Fluoro-4-methoxy-5-(((1S,2R,3S,4R)-3-(neopentylcarbamoyl)bicyclo[2.2.1]heptan-2-yl)carbamoyl)phenoxy)-1-methylcyclohexane-1-carboxylic acid]: in data set [2], the “Test B Human Plasma Protein Binding (% free)” value stood at 8.2 % free. In data set [3], the microsomal CLint came out at 14 µL/min/mg. Besides, the hepatocyte CLint at 1 µM in data set [4] was 2.7 µL/min/1e6 cells. In data set [5], this compound returned a hepatocyte CLint of 23 µL/min/1e6 cells. The compound also displayed a solubility in data set [6] above 730 µM. In addition, the pEC50 in data set [7] (Test A EC50, RXFP1 Hu cAMP) is 7.41.
Regarding `COc1cc(F)c(O[C@H]2CC[C@@H](C(=O)O)CC2)cc1C(=O)N[C@@H]1[C@H]2CC[C@H](C2)[C@@H]1C(=O)Nc1ccc(F)c(C(F)(F)F)c1` [Example 179, (1S,4s)-4-(2-Fluoro-5-(((1S,2R,3S,4R)-3-((4-fluoro-3-(trifluoromethyl)phenyl)carbamoyl)bicyclo[2.2.1]heptan-2-yl)carbamoyl)-4-methoxyphenoxy)cyclohexane-1-carboxylic acid], the “Test B Human Plasma Protein Binding (% free)” value in data set [2] is reported as 1 % free. In data set [3], the intrinsic clearance (microsomal CLint) turned out to be 42 µL/min/mg. Further, the hepatocyte CLint at 1 µM in data set [4] is 13 µL/min/1e6 cells. In data set [5], this compound showed a hepatocyte CLint of 32 µL/min/1e6 cells. In data set [6], the solubility was above 800 µM. Besides, in data set [7] (RXFP1 Hu cAMP), the “Test A Sinf” value amounted to 106%. The pEC50 in data set [7] (setting [8]) was 7.80.
